From ChEMBL document CHEMBL1157012, “Neural computational prediction of oral drug absorption based on CODES 2D descriptors” (Eur J Med Chem, 2010)

assay: Human intestinal absorption in po dosed human; conditions: in vivo

Row | Structure (SMILES) | Fa
1 | CC(C)(C)NCC(O)COc1cccc2c1CC(O)C(O)C2 (stereo unspecified) [NADOLOL] | 57%
2 | CCc1nn(CCCN2CCN(c3cccc(Cl)c3)CC2)c(=O)n1CCOc1ccccc1 [NEFAZODONE] | 100%
3 | CC#Cc1cn([C@@H]2O[C@H](CO)[C@@H](O)[C@@H]2O)c(=O)[nH]c1=O [NETIVUDINE] | 28%
4 | O=C(O)c1cccnc1 [NIACIN] | 88%
5 | COC(=O)C1=C(C)NC(C)=C(C(=O)OCC(C)C)C1c1ccccc1[N+](=O)[O-] (stereo unspecified) [NISOLDIPINE] | 89%
6 | CCOC(=O)C1=C(C)NC(C)=C(C(=O)OC)C1c1cccc([N+](=O)[O-])c1 (stereo unspecified) [NITRENDIPINE] | 88%
7 | CNC(=C[N+](=O)[O-])NCCSCc1csc(CN(C)C)n1 [NIZATIDINE] | 90%
8 | CC1COc2c(N3CCN(C)CC3)c(F)cc3c(=O)c(C(=O)O)cn1c23 (stereo unspecified) [OFLOXACIN] | 100%
9 | O=C(O)c1cc(/N=N/c2ccc(O)c(C(=O)O)c2)ccc1O [OLSALAZINE] | 24%
10 | Cc1nccn1CC1CCc2c(c3ccccc3n2C)C1=O (stereo unspecified) [ONDANSETRON] | 100%
11 | C[C@@H]1O[C@@H](O[C@H]2C[C@@H](O)[C@]3(CO)[C@H]4[C@H](O)C[C@]5(C)[C@@H](C6=CC(=O)OC6)CC[C@]5(O)[C@@H]4CC[C@]3(O)C2)[C@H](O)[C@H](O)[C@H]1O [OUABAIN] | 1%
12 | O=c1[nH]c2ccccc2n1CCCN1CCN(C(c2ccccc2)c2ccccc2)CC1 [OXATOMIDE] | 100%
13 | C=CCOc1ccccc1OCC(O)CNC(C)C (stereo unspecified) [OXPRENOLOL] | 95%
14 | COc1cccc(C(=O)CCN[C@@H](C)[C@H](O)c2ccccc2)c1 [OXYFEDRINE] | 84%
15 | CC(C)NCC(O)COc1ccc(CCNC(=O)NC(C)C)cc1 (stereo unspecified) [PAFENOLOL] | 29%
16 | CCn1cc(C(=O)O)c(=O)c2cc(F)c(N3CCN(C)CC3)cc21 [PEFLOXACIN] | 100%
17 | CC1(C)S[C@@H]2[C@H](NC(=O)Cc3ccccc3)C(=O)N2[C@H]1C(=O)O [PENICILLIN G] | 30%
18 | CC1(C)S[C@@H]2[C@H](NC(=O)COc3ccccc3)C(=O)N2[C@H]1C(=O)O [PENICILLIN V] | 59%
19 | CCN(CC)CCC1(c2ccccc2)CCC(=O)NC1=O (stereo unspecified) [PHENGLUTARIMIDE] | 100%
20 | O=C1NC(=O)C(c2ccccc2)(c2ccccc2)N1 [PHENYTOIN] | 90%
21 | CC(C)NCC(O)COc1cccc2[nH]ccc12 (stereo unspecified) [PINDOLOL] | 87%
22 | CC(C)(C)NCC(O)c1ccc(O)c(CO)n1 (stereo unspecified) [PIRBUTEROL] | 60%

Row | Structure (SMILES) | Fa
23 | CN1C(C(=O)Nc2ccccn2)=C(O)c2ccccc2S1(=O)=O [PIROXICAM] | 100%
24 | CCc1[nH]c(=O)[nH]c1C(=O)c1ccncc1 [PIROXIMONE] | 80%
25 | CC[C@H](C)C(=O)O[C@H]1C[C@H](O)C=C2C=C[C@H](C)[C@H](CC[C@@H](O)C[C@@H](O)CC(=O)O)[C@H]21 [PRAVASTATIN] | 34%
26 | O=C(C1CCCCC1)N1CC(=O)N2CCc3ccccc3C2C1 (stereo unspecified) [PRAZIQUANTEL] | 100%
27 | COc1cc2nc(N3CCN(C(=O)c4ccco4)CC3)nc(N)c2cc1OC [PRAZOSIN] | 86%
28 | C[C@]12C=CC(=O)C=C1CC[C@@H]1[C@@H]2[C@@H](O)C[C@@]2(C)[C@H]1CC[C@]2(O)C(=O)CO [PREDNISOLONE] | 99%
29 | CCCOC(C(=O)OC1CCN(C)CC1)(c1ccccc1)c1ccccc1 [PROPIVERINE] | 84%
30 | CCCc1cc(=O)[nH]c(=S)[nH]1 [PROPYLTHIOURACIL] | 76%
31 | C=C[C@H]1C[N@@]2CC[C@H]1C[C@@H]2[C@@H](O)c1ccnc2ccc(OC)cc12 [QUINIDINE] | 81%
32 | Cn1c(=O)c2c(ncn2CCCNCC(O)c2cc(O)cc(O)c2)n(C)c1=O (stereo unspecified) [REPROTEROL] | 60%
33 | NC(=O)c1ncn([C@@H]2O[C@H](CO)[C@@H](O)[C@H]2O)n1 [RIBAVIRIN] | 33%
34 | Oc1ccc(C(O)C2CCCCN2)cc1O (stereo unspecified) [RIMITEROL] | 48%
35 | O=C1NS(=O)(=O)c2ccccc21 [SACCHARIN] | 88%
36 | O=C(O)c1ccccc1O [SALICYLIC ACID] | 100%
37 | O=c1[nH]c(=O)n([C@@H]2O[C@H](CO)[C@@H](O)[C@@H]2O)cc1/C=C/Br [SORIVUDINE] | 82%
38 | CC(C)NCC(O)c1ccc(NS(C)(=O)=O)cc1 (stereo unspecified) [SOTALOL] | 95%
39 | CC(=O)S[C@@H]1CC2=CC(=O)CC[C@]2(C)[C@H]2CC[C@@]3(C)[C@@H](CC[C@@]34CCC(=O)O4)[C@H]12 [SPIRONOLACTONE] | 73%
40 | Cc1cn([C@H]2C=C[C@@H](CO)O2)c(=O)[nH]c1=O [STAVUDINE] | 100%
41 | CN1C(C(=O)Nc2nccs2)=C(O)c2ccccc2S1(=O)=O [SUDOXICAM] | 100%
42 | O=C(O)c1cc(/N=N/c2ccc(S(=O)(=O)Nc3ccccn3)cc2)ccc1O [SULFASALAZINE] | 59%
43 | CCN1CCCC1CNC(=O)c1cc(S(N)(=O)=O)ccc1OC (stereo unspecified) [SULPIRIDE] | 44%
44 | CCN1CCCC1CNC(=O)c1cc(S(=O)(=O)CC)ccc1OC (stereo unspecified) [SULTOPRIDE] | 89%

Row | Structure (SMILES) | Fa
45 | NC(=O)N1C(=O)/C(=C(\O)c2cccs2)c2cc(Cl)ccc21 [TENIDAP] | 89%
46 | CN1C(C(=O)Nc2ccccn2)=C(O)c2sccc2S1(=O)=O [TENOXICAM] | 100%
47 | COc1cc2nc(N3CCN(C(=O)C4CCCO4)CC3)nc(N)c2cc1OC (stereo unspecified) [TERAZOSIN] | 90%
48 | CC(C)(C)NCC(O)c1cc(O)cc(O)c1 (stereo unspecified) [TERBUTALINE] | 62%
49 | C[C@]12CC[C@H]3[C@@H](CCC4=CC(=O)CC[C@@]43C)[C@@H]1CC[C@@H]2O [TESTOSTERONE] | 100%
50 | Cn1c(=O)c2[nH]cnc2n(C)c1=O.O [THEOPHYLLINE] | 100%
51 | Cc1ccsc1C(=CCCN1CCC[C@@H](C(=O)O)C1)c1sccc1C [TIAGABINE] | 90%
52 | CC(C)(C)NC[C@H](O)COc1nsnc1N1CCOCC1 [TIMOLOL] | 95%
53 | COc1cc(C)c([S+](C)[O-])cc1OC (stereo unspecified) [TOLMESOXIDE] | 98%
54 | CC1(C)O[C@@H]2[C@@H](CO[C@@]3(COS(N)(=O)=O)OC(C)(C)O[C@@H]23)O1 [TOPIRAMATE] | 86%
55 | CN(C)CCOc1ccc(/C(=C(/CCCl)c2ccccc2)c2ccccc2)cc1 [TOREMIFENE] | 100%
56 | Cc1cccc(Nc2ccncc2S(=O)(=O)NC(=O)NC(C)C)c1 [TORSEMIDE] | 96%
57 | COc1cccc(C2(O)CCCCC2CN(C)C)c1 (stereo unspecified) [TRAMADOL] | 90%
58 | COc1cc(Cc2cnc(N)nc2N)cc(OC)c1OC [TRIMETHOPRIM] | 97%
59 | N[C@@H]1[C@H]2CN(c3nc4c(cc3F)c(=O)c(C(=O)O)cn4-c3ccc(F)cc3F)C[C@@H]12 [TROVAFLOXACIN] | 88%
60 | CCCC(CCC)C(=O)[O-].[Na+] [VALPROATE SODIUM] | 100%
61 | COc1ccc(C(CN(C)C)C2(O)CCCCC2)cc1 (stereo unspecified) [VENLAFAXINE] | 97%
62 | C=CC(N)CCC(=O)O (stereo unspecified) [VIGABATRIN] | 58%
63 | CCOc1ccccc1OCC1CNCCO1 (stereo unspecified) [VILOXAZINE] | 98%
64 | CC(C(=O)O)c1ccc(C2CCCC(=NO)C2)cc1 (stereo unspecified) [XIMOPROFEN] | 98%
65 | Cc1cn([C@H]2C[C@H](N=[N+]=[N-])[C@@H](CO)O2)c(=O)[nH]c1=O [ZIDOVUDINE] | 100%
66 | O=C1Cc2cc(CCN3CCN(c4nsc5ccccc45)CC3)c(Cl)cc2N1 [ZIPRASIDONE] | 60%
